Measured values as given in PMC6273978, “Synthesis and Pharmacological Evaluation of Novel Pleuromutilin Derivatives with Substituted Benzimidazole Moieties” (Molecules, 2016).
Converted amounts (≈) assume the structure as drawn. Where a name gives a salt, the structure may show the parent alone.

What was measured:
[1] = test system: S. aureus; experiment: Oxford cup assay, zone of inhibition; type: cell-based; details: Staphylococcus aureus
Description: (§1) The Oxford cup assays were carried out to evaluate the antibacterial activities against the above-mentioned six bacterial strains. The zones of inhibition for two concentrations (320 and 160 μg/mL) of the synthetic compounds and tiamulin fumarate were measured. The results of Oxford cup assay correspond with that obtained by agar dilution method (MICs) as a whole.
(§2) The procedure for Oxford cup assays was the same as that previously reported. Briefly, inoculums were prepared in 0.9% saline using McFarland standard and spread uniformly on nutrient agar plates. The 320 and 160 µg/mL of all the tested compounds were added individually into the Oxford cups that were placed at equal distances above the agar surfaces. The zone of inhibition for each concentration was measured after a 24–36 h incubation at 37 °C. The same procedure was repeated in triplicate.

[2] = test system: E. coli; experiment: Oxford cup assay, zone of inhibition; type: cell-based; details: Escherichia coli
Description: as §1, §2

[3] = test system: S. haemolyticus; experiment: Oxford cup assay, zone of inhibition; type: cell-based; details: Staphylococcus haemolyticus
Description: as §1, §2

[4] = test system: MRSA; experiment: Oxford cup assay, zone of inhibition; type: cell-based; details: Staphylococcus aureus
Description: as §1, §2

[5] = test system: S. warneri; experiment: Oxford cup assay, zone of inhibition; type: cell-based; details: Staphylococcus warneri
Description: as §1, §2

[6] = test system: S. vitulinus; experiment: Oxford cup assay, zone of inhibition; type: cell-based, Staphylococcus vitulinus; details: Mammaliicoccus vitulinus
Description: as §1, §2

[7] = test system: Staphylococcus vitulinus (S. vitulinus); experiment: MIC testing, agar dilution method; type: cell-based; details: Mammaliicoccus vitulinus, 36.5 °C, 24–48 h
Source text: (§3) The synthesized pleuromutilin derivatives 3 and 4a–l, with tiamulin fumarate used a as reference drug, were screened for their in vitro antibacterial activity against Escherichia coli (E. coli), Staphylococcus aureus (S. aureus), Methicillin-resistant Staphylococcus aureus (MRSA), Staphylococcus vitulinus (S. vitulinus), Staphylococcus warneri (S. warneri), and Staphylococcus haemolyticus (S. haemolyticus). The antibacterial activities are reported in Table 1 as the minimum inhibitory concentration (MIC) using the agar dilution method. The MICs of the 13 new pleuromutilin derivatives in vitro against E. coli ranged from 10 to 80 μg/mL; against S. aureus, MRSA, S. vitulinus, S. warneri, and S. haemolyticus ranged from 0.156 to 40 μg/mL, respectively.
(§4) The MIC for the synthesized compounds (3 and 4a–l) and tiamulin fumarate used as a reference drug were determined using the agar dilution method according to the National Committee for Clinical Laboratory Standards (NCCLS). Tested compounds were dissolved in 25%–40% DMSO to a solution with a concentration of 1280 µg/mL, whereas tiamulin fumarate was directly dissolved in 10 mL of distilled water at the same concentration as the tested compounds. All the solutions were then diluted twofold with sterile water to provide 11 dilutions (final concentration is 0.625 µg/mL). A 2 mL volume of the 2-fold serial dilution of each test compound/drug was incorporated into 18 mL of hot Muellere-Hinton agar medium. Inoculums, including five Gram (+), S. aureus, MRSA, S. vitulinus, S. warneri, S. haemolyticus, and one Gram (−), E. coli were prepared from blood slants and adjusted to approximately 10^5–10^6 CFU/mL with sterile saline (0.90% NaCl). A 10 µL amount of bacterial suspension was spotted onto Muellere-Hinton agar plates containing serial dilutions of the compounds/drug. The plates were incubated at 36.5 °C for 24–48 h. The same procedure was repeated in triplicate.

[8] = test system: Methicillin-resistant Staphylococcus aureus (MRSA); experiment: MIC testing, agar dilution method; type: cell-based; details: 36.5 °C, 24–48 h
Source text: as §3, §4

[9] = test system: Escherichia coli (E. coli); experiment: MIC testing, agar dilution method; type: cell-based; details: 36.5 °C, 24–48 h
Source text: as §3, §4

[10] = test system: Staphylococcus aureus (S. aureus); experiment: MIC testing, agar dilution method; type: cell-based; details: 36.5 °C, 24–48 h
Source text: as §3, §4

[11] = test system: Staphylococcus haemolyticus (S. haemolyticus); experiment: MIC testing, agar dilution method; type: cell-based; details: 36.5 °C, 24–48 h
Source text: as §3, §4

[12] = test system: Staphylococcus warneri (S. warneri); experiment: MIC testing, agar dilution method; type: cell-based; details: 36.5 °C, 24–48 h
Source text: as §3, §4

[13] = test system: S. aureus; experiment: Inhibition of short-term bacterial growth (absorbance at 450 nm); type: cell-based; details: Staphylococcus aureus, 3.5 h, read-out: GI50 S. aureus growth
Description: (§5) Compound 3, being the best antibacterial derivative, was chosen for further evaluation on its antibacterial effect to inhibit short-term S. aureus and MRSA growth (Figure 2). This includes the GI50 of tiamulin fumarate for S. aureus and MRSA.
(§6) The inhibition activities of test compounds were evaluated by measuring the absorbance of the bacterial suspension. In brief, inoculums were prepared from blood slants and adjusted to approximately 10^6 CFU/mL in Muellere-Hinton broth. The 0.0625, 0.125, 0.25, 0.5, 1, and 2 µM of tested compounds were prepared and added to the prepared inoculums. A sample of inoculum with no compound was used as control. The absorbance of bacterial suspension at 450 nm was measured using an UV spectrophotometer after 3.5 h of incubation, and the inhibition was calculated as 1 − (A^P/A^0), where A^p and A^0 are the absorbance of bacterial suspension in the presence and absence of compounds, respectively. The same procedure was independently repeated in triplicate.

[14] = test system: MRSA; experiment: as above; type: cell-based; details: Staphylococcus aureus, 3.5 h incubation, Mueller-Hinton broth
Description: as §5, §6

C=C[C@]1(C)C[C@@H](OC(=O)CSc2nc3ccc(NC(=O)c4ccc(OC)cc4)cc3[nH]2)[C@]2(C)[C@H](C)CC[C@]3(CCC(=O)[C@H]32)[C@@H](C)[C@@H]1O [Compound 4i, 14-O-((4-Methoxybenzamide-5-aminobenzimidazole-2-yl)thioacetyl) mutilin]
zone of inhibition at 160 µg/mL [1]: 18.6 mm
zone of inhibition at 320 µg/mL [1]: 21.5 mm
zone of inhibition at 160 µg/mL [2]: 14.2 mm
zone of inhibition at 320 µg/mL [2]: 17.7 mm
zone of inhibition at 160 µg/mL [3]: 23 mm
zone of inhibition at 320 µg/mL [3]: 32.9 mm
zone of inhibition at 160 µg/mL [4]: 21.3 mm
zone of inhibition at 320 µg/mL [4]: 25.7 mm
zone of inhibition at 160 µg/mL [5]: 18.6 mm
zone of inhibition at 320 µg/mL [5]: 21.8 mm
zone of inhibition at 160 µg/mL [6]: 17.6 mm
zone of inhibition at 320 µg/mL [6]: 18.2 mm
MIC [7]: 40 µg/mL (≈ 60.6 µM)
MIC [8]: 20 µg/mL (≈ 30.3 µM)
MIC [9]: 40 µg/mL (≈ 60.6 µM)
MIC [10]: 40 µg/mL (≈ 60.6 µM)
MIC [11]: 5 µg/mL (≈ 7.58 µM)
MIC [12]: 20 µg/mL (≈ 30.3 µM)

C=C[C@]1(C)C[C@@H](OC(=O)CSc2nc3ccc(NC(=O)C4CCCCC4)cc3[nH]2)[C@]2(C)[C@H](C)CC[C@]3(CCC(=O)[C@H]32)[C@@H](C)[C@@H]1O [Compound 4j, 14-O-((Cyclohexanecarboxamide-5-aminobenzimidazole-2-yl)thioacetyl) mutilin]
zone of inhibition at 160 µg/mL [1]: 15.4 mm
zone of inhibition at 320 µg/mL [1]: 27.2 mm
zone of inhibition at 160 µg/mL [2]: 17.4 mm
zone of inhibition at 320 µg/mL [2]: 19.8 mm
zone of inhibition at 160 µg/mL [3]: 23 mm
zone of inhibition at 320 µg/mL [3]: 26.4 mm
zone of inhibition at 160 µg/mL [4]: 28 mm
zone of inhibition at 320 µg/mL [4]: 31.9 mm
zone of inhibition at 160 µg/mL [5]: 24.7 mm
zone of inhibition at 320 µg/mL [5]: 27.7 mm
zone of inhibition at 160 µg/mL [6]: 26 mm
zone of inhibition at 320 µg/mL [6]: 29.1 mm
MIC [7]: 1.25 µg/mL (≈ 1.97 µM)
MIC [8]: 1.25 µg/mL (≈ 1.97 µM)
MIC [9]: 20 µg/mL (≈ 31.5 µM)
MIC [10]: 5 µg/mL (≈ 7.86 µM)
MIC [11]: 10 µg/mL (≈ 15.7 µM)
MIC [12]: 2.5 µg/mL (≈ 3.93 µM)

C=C[C@]1(C)C[C@@H](OC(=O)CSc2nc3ccc(NC(=O)c4ccc[nH]4)cc3[nH]2)[C@]2(C)[C@H](C)CC[C@]3(CCC(=O)[C@H]32)[C@@H](C)[C@@H]1O [Compound 4k, 14-O-(((1H-Pyrrole-2-carboxamide)-5-aminobenzimidazole-2-yl)thioacetyl) mutilin]
zone of inhibition at 160 µg/mL [1]: 26.6 mm
zone of inhibition at 320 µg/mL [1]: 28.9 mm
zone of inhibition at 160 µg/mL [2]: 18.5 mm
zone of inhibition at 320 µg/mL [2]: 20.1 mm
zone of inhibition at 160 µg/mL [3]: 25.5 mm
zone of inhibition at 320 µg/mL [3]: 29.9 mm
zone of inhibition at 160 µg/mL [4]: 26.5 mm
zone of inhibition at 320 µg/mL [4]: 30.7 mm
zone of inhibition at 160 µg/mL [5]: 21.2 mm
zone of inhibition at 320 µg/mL [5]: 25.5 mm
zone of inhibition at 160 µg/mL [6]: 24.7 mm
zone of inhibition at 320 µg/mL [6]: 27 mm
MIC [7]: 1.25 µg/mL (≈ 2.02 µM)
MIC [8]: 1.25 µg/mL (≈ 2.02 µM)
MIC [9]: 20 µg/mL (≈ 32.3 µM)
MIC [10]: 1.25 µg/mL (≈ 2.02 µM)
MIC [11]: 1.25 µg/mL (≈ 2.02 µM)
MIC [12]: 5 µg/mL (≈ 8.08 µM)

C=C[C@]1(C)C[C@@H](OC(=O)CSc2nc3ccc(NC(=O)c4cc5ccccc5[nH]4)cc3[nH]2)[C@]2(C)[C@H](C)CC[C@]3(CCC(=O)[C@H]32)[C@@H](C)[C@@H]1O [Compound 4l, 14-O-(((1H-Indole-2-carboxamide)-5-aminobenzimidazole-2-yl)thioacetyl) mutilin]
zone of inhibition at 160 µg/mL [1]: 20.9 mm
zone of inhibition at 320 µg/mL [1]: 24.7 mm
zone of inhibition at 160 µg/mL [2]: 17.4 mm
zone of inhibition at 320 µg/mL [2]: 20.5 mm
zone of inhibition at 160 µg/mL [3]: 20.8 mm
zone of inhibition at 320 µg/mL [3]: 25.1 mm
zone of inhibition at 160 µg/mL [4]: 19.8 mm
zone of inhibition at 320 µg/mL [4]: 21.6 mm
zone of inhibition at 160 µg/mL [5]: 25.4 mm
zone of inhibition at 320 µg/mL [5]: 29.6 mm
zone of inhibition at 160 µg/mL [6]: 22.1 mm
zone of inhibition at 320 µg/mL [6]: 26.5 mm
MIC [7]: 5 µg/mL (≈ 7.48 µM)
MIC [8]: 10 µg/mL (≈ 15 µM)
MIC [9]: 20 µg/mL (≈ 29.9 µM)
MIC [10]: 10 µg/mL (≈ 15 µM)
MIC [11]: 10 µg/mL (≈ 15 µM)
MIC [12]: 2.5 µg/mL (≈ 3.74 µM)

C=C[C@]1(C)C[C@@H](OC(=O)CSCCN(CC)CC)[C@]2(C)[C@H](C)CC[C@]3(CCC(=O)[C@H]32)[C@@H](C)[C@@H]1O [Tiamulin, tiamulin fumarate, reference compound]
zone of inhibition at 160 µg/mL [1]: 25.1 mm
zone of inhibition at 320 µg/mL [1]: 28.2 mm
zone of inhibition at 160 µg/mL [2]: 25.8 mm
zone of inhibition at 320 µg/mL [2]: 27.1 mm
zone of inhibition at 160 µg/mL [3]: 28.8 mm
zone of inhibition at 320 µg/mL [3]: 31.5 mm
zone of inhibition at 160 µg/mL [4]: 28.1 mm
zone of inhibition at 320 µg/mL [4]: 30.5 mm
zone of inhibition at 160 µg/mL [5]: 22.4 mm
zone of inhibition at 320 µg/mL [5]: 30.5 mm
zone of inhibition at 160 µg/mL [6]: 18.6 mm
zone of inhibition at 320 µg/mL [6]: 30.9 mm
MIC [7]: 0.156 µg/mL
MIC [8]: 0.156 µg/mL
MIC [9]: 1.25 µg/mL
MIC [10]: 0.156 µg/mL
MIC [11]: 0.156 µg/mL
MIC [12]: 0.156 µg/mL
GI50 [13]: 98.3 nM
GI50 [14]: 254 nM
